Experimental data reported in PubChem BioAssay (NCI).
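Where inhibition never reached the appropriate level, the endpoint shown equals the highest concentration tested. Otherwise, values were interpolated linearly from a five-concentration, 48-hour dose response in 96-well plates. The concentration for 50% growth inhibition is given as GI50. At the TGI there is no net growth.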

Tests used:
Assay in all cases: growth of human tumour cells (NCI), 48 h
OVCAR-8 ovarian = test system: OVCAR-8 ovarian
UO-31 renal = test system: UO-31 renal
NCI/ADR-RES ovarian = test system: NCI/ADR-RES ovarian
OVCAR-5 ovarian = test system: OVCAR-5 ovarian
OVCAR-4 ovarian = test system: OVCAR-4 ovarian
UACC-62 melanoma = test system: UACC-62 melanoma
786-0 renal = test system: 786-0 renal
TK-10 renal = test system: TK-10 renal
UACC-257 melanoma = test system: UACC-257 melanoma
COLO 205 colon = test system: COLO 205 colon

SMILES | TGI (OVCAR-8 ovarian) [µM] | TGI (UO-31 renal) [µM] | TGI (NCI/ADR-RES ovarian) [µM] | TGI (OVCAR-5 ovarian) [µM] | TGI (OVCAR-4 ovarian) [µM] | TGI (UACC-62 melanoma) [µM] | TGI (786-0 renal) [µM] | TGI (TK-10 renal) [µM] | TGI (UACC-257 melanoma) [µM] | TGI (COLO 205 colon) [µM] | GI50 (OVCAR-8 ovarian) [µM] | GI50 (UO-31 renal) [µM] | GI50 (NCI/ADR-RES ovarian) [µM] | GI50 (OVCAR-5 ovarian) [µM] | GI50 (OVCAR-4 ovarian) [µM] | GI50 (UACC-62 melanoma) [µM] | GI50 (786-0 renal) [µM] | GI50 (TK-10 renal) [µM] | GI50 (UACC-257 melanoma) [µM] | GI50 (COLO 205 colon) [µM]
O=C(O)CSc1nnc2c3ccccc3c3ccccc3c2n1 | > 100 | > 100 | > 100 | > 100 | > 100 | > 100 | > 100 | > 100 | > 100 | > 100 | – | – | – | – | – | – | – | – | – | –
CCC(=O)Oc1ccc(/C=N/NC(N)=S)nc1 | > 100 | 22.8 | > 100 | > 100 | > 100 | > 100 | 13.7 | > 100 | > 100 | > 100 | 3.51 | 3.48 | 3.27 | 34 | 3.92 | 3.43 | 3.19 | 49 | 21.5 | 27.5
CC1CC2(C)CC(=O)C1C1C(=O)N(CCN3CCOCC3)C(=O)C12 (centres undefined) | > 100 | > 100 | > 100 | > 100 | > 100 | > 100 | > 100 | > 100 | > 100 | > 100 | > 100 | > 100 | > 100 | > 100 | > 100 | > 100 | > 100 | > 100 | > 100 | > 100
O=C(CN1CCN(c2ccccn2)CC1)Nc1ccc(Cl)cc1C(=O)c1ccccc1Cl | > 100 | > 100 | > 100 | > 100 | > 100 | > 100 | > 100 | > 100 | > 100 | > 100 | > 100 | 9.38 | 86.8 | > 100 | 13.9 | 12.8 | 1.57 | > 100 | 54.9 | > 100
COc1ccc(CNC(=O)c2c(C)n([O-])c3cc(F)c(F)cc3[n+]2=O)cc1 | 15.9 | 26.6 | 31.6 | 29.4 | 26.9 | 28.5 | 30.6 | 27.1 | 23.6 | 24.3 | 3.72 | 12.8 | 17 | 16 | 13.7 | 15 | 16.9 | 14.1 | 10.4 | 11.2
CCN1C(=O)N(CC)C2C1NN=c1s/c(=C\c3cnc(C)n3C)c(=O)n12 (centres undefined) | > 100 | > 100 | > 100 | > 100 | > 100 | 88 | > 100 | > 100 | > 100 | 4.88 | 3.41 | 5 | 10.3 | 3.68 | 3.76 | 1.14 | 6.54 | 7.19 | 4.69 | 1.63
CCCNC(=O)Nc1ccc2c(c1)Cc1cc(N(CCCl)CCCl)ccc1-2 | > 100 | 82.2 | > 100 | > 100 | – | > 100 | > 100 | > 100 | > 100 | 26.7 | – | – | – | – | – | – | – | – | – | –
